Assay results: patent US5686104A, “Stable oral CI-981 formulation and process of preparing same” (Warner-Lambert Company, priority 1994, dated 1997)
Counter-ions that a name gives are not always drawn.

Tests used:
[1] = tested on: sterol synthesis (rat liver homogenate); details: read-out: IC50, concentration required for 50% inhibition of sterol synthesis, one-hour period, data disclosed in U.S. Pat. No. 5,273,995; cited from earlier work
[2] = Stability of the hydroxy acid compounds in acidic environment, under light, or in wet-granulated compositions (statement); assay type: physicochemical; details: no calcium carbonate

degradation in compositions prepared by the wet-granulation method [2] | Structure (SMILES) | IC50 [1] [µM]
– | CC(C)c1c(C(=O)Nc2ccccc2)c(-c2ccccc2)c(-c2ccc(F)cc2)n1CC[C@@H](O)C[C@@H](O)CC(=O)O (relative stereo) [Racemate] | 0.045
– | CC(C)c1c(C(=O)Nc2ccccc2)c(-c2ccccc2)c(-c2ccc(F)cc2)n1CC[C@H](O)C[C@H](O)CC(=O)O [[S-(R*R*)] isomer] | 0.44
degrades rapidly | CC(C)c1c(C(=O)Nc2ccccc2)c(-c2ccccc2)c(-c2ccc(F)cc2)n1CC[C@@H](O)C[C@@H](O)CC(=O)O [CI-981 Hemi-Calcium, [R-(R*,R*)]-2-(4-fluorophenyl)-β,δ-dihydroxy-5-(1-methylethyl)-3-phenyl-4-[(phenylamino)carbonyl]-1H-pyrrole-1-heptanoic acid hemicalcium salt] | 0.0044
